Drawing on EP0398426A1, “Antirhinoviral (thio)morpholinyl and piperazinyl alkylphenol ethers” (JANSSEN PHARMACEUTICA N.V., priority 1989, dated 1990), this text covers IC50 for six molecules.

Converted amounts (≈) assume the structure as drawn.

The subject of assay [1] is Human Rhinovirus serotypes HRV-42,-45,-14,-70,-72 and -86. Description: Picornavirus Minimal Inhibitory Concentration Test (cytopathic effect reduction assay), second panel of rhinoviruses. In kind it is cell-based. The settings on record: Human rhinovirus sp., HRV42, HeLa, read-out: Med₂. How it is done:
(§1) The Minimal Inhibitory Concentration of the compounds of the present invention against the Human Rhinovirus strains (HRV) -2,-9,-14,-15,-29,-39,-41,-42,-45,-51,-59,-63, -70,-72,-85,-86,-89 was determined by a standard cytopathic effect reduction assay as follows. To each of the ninty six (96) wells of a microtiter 96 well tissue culture plate there was added 60 µl of a Ohio Hela cell maintenance medium [Eagle's Basal medium supplemented with 5% Foetal Calf Serum (FCS)]. To two wells there was added 60 µl of an appropriate starting dilution of a compound of formula (I) and two-fold dilutions were made to cover a wide range of compound concentrations. Subsequently there were added 120 µl of an infectious solution of virus in Eagle's Basal Medium with 2% Hepes buffer, 2% FCS and 30 mM MgCl₂ to all wells except cell and compound controls. Said infectious virus solution having a TCID₅₀-value (Tissue Culture Infectious Dose) of about 100.
(§2) The TCID₅₀-value is the dose of viruses which initiates a cytopathic effect in 50% of the inoculated cells. 150 µl of the thus obtained virus-compound mixtures were then transferred to microtitre plates with subconfluent Ohio Hela Cells, grown in 100 µl of maintenance medium. Appropriate virus controls, cell controls and compound controls were included in each test. […] The IC₅₀-value for each virus-compound series was taken as the concentration in ng/ml that protected 50% of the cells from cytopathic effects with respect to the untreated controls. In the standard test procedure, the compounds were tested against two panels of rhinoviruses, a first panel consisting of serotypes HRV- 2,-29,-39,-85,-9,-15,-51,-59,-63,-89,-41 and the other panel consisting of HRV-42,-45,-14,-70,-72 and -86.
(§3) The IC₅₀-value for each rhinovirus serotype was determined, and the efficacy of each compound was determined in terms of the Med₁-value and Med₂-value, which is the medium value of the IC₅₀-values of all serotypes from the first and second panel respectively.
For orientation: Protection from cytopathic effect is a common read-out in antiviral testing.

Assay [2] relates to Human Rhinovirus serotypes HRV- 2,-29,-39,-85,-9,-15,-51,-59,-63,-89,-41. Nature of the assay: Picornavirus Minimal Inhibitory Concentration Test (cytopathic effect reduction assay), first panel of rhinoviruses. The format is cell-based. As to conditions: Human rhinovirus sp.; medium value of the IC50-values of all serotypes of the first panel; Ohio Hela cells, 3 to 5 days at 33°C; concentration protecting 50% of the cells from cytopathic effects; read-out: Med₁. How it is done:
as §1, §2, §3

With `CCOC(=O)c1ccc(OCCC2CN(c3ccc(Cl)nn3)CCO2)cc1` (stereo not drawn) [compound 11], the figures for the IC50 in assay [1] and in assay [2] were 29 ng/mL (≈ 0.074 µM) and 6 ng/mL (≈ 0.0153 µM), respectively.

For the molecule `CCOC(=O)c1ccc(OCCC2CN(c3ccc(Br)nn3)CCO2)cc1` (stereo not drawn) [compound 17], the IC50 stood at 22 ng/mL (≈ 0.0504 µM) in assay [1] and 2 ng/mL (≈ 0.00458 µM) in assay [2].

As for `CCOC(=O)c1ccc(OCCC2CN(c3ccc(I)nn3)CCO2)cc1` (stereo not drawn) [compound 20], the IC50 is 12 ng/mL (≈ 0.0248 µM) in assay [1] and 2 ng/mL (≈ 0.00414 µM) in assay [2].

As for `CCOC(=O)c1ccc(OCCC2CN(c3nnc(C)s3)CCO2)cc1` (stereo not drawn) [compound 21], the IC50 in assay [1] turned out to be 21 ng/mL (≈ 0.0556 µM); in assay [2], 6 ng/mL (≈ 0.0159 µM).

As to `CCOC(=O)c1ccc(OCCC2CN(c3ccc(SC)nn3)CCO2)cc1` (stereo not drawn) [compound 23, ethyl 4-[2-[4-[6-(methylthio)-3-pyridazinyl]-2-morpholinyl]ethoxy]benzoate], the IC50 came to 12 ng/mL (≈ 0.0297 µM) in assay [1] and 3 ng/mL (≈ 0.00743 µM) in assay [2].

`CCOC(=O)c1ccc(OCCC2CN(c3ccc(C)nn3)CCO2)cc1` (stereo not drawn) [compound 26]: the results for the IC50 in assay [1] and in assay [2] were 29 ng/mL (≈ 0.0781 µM) and 5 ng/mL (≈ 0.0135 µM), respectively.
